In patent US4864023A, “Pyrido(3,2,1-IJ)-1,3,4-benzoxadiazine derivatives” (priority 1988, dated 1989):
≈ marks a conversion by molar mass, not a printed value.

What was measured:
Assay in all cases: in vitro antibacterial activity, standard agar dilution method
Assay type in all cases: cell-based
[1] = tested on: Enterococcus faecalis NR 2943; conditions: NR2943, aerobic, read-out: minimum inhibitory concentration (MIC)
[2] = tested on: Enterobacter cloacae NR 2946; conditions: NR2946, aerobic, read-out: minimum inhibitory concentration (MIC)
[3] = tested on: Salmonella typhimurium IFO 12529; conditions: Salmonella enterica, aerobic, read-out: minimum inhibitory concentration (MIC)
[4] = tested on: Klebsiella pneumoniae FDA PCI 602; conditions: FDAPCI602, aerobic, read-out: minimum inhibitory concentration (MIC)
[5] = tested on: Staphylococcus aureus FDA 209P JC-1; conditions: FDA209P; Staphylococcus aureus FDA 209P JC-1; aerobic; agar dilution; read-out: minimum inhibitory concentration (MIC)
[6] = tested on: Proteus vulgaris OX19 ATCC 6898; conditions: ATCC6898, aerobic, read-out: minimum inhibitory concentration (MIC)
[7] = tested on: Escherichia coli NR 2630; conditions: NR2630; Escherichia coli NR 2630; aerobic; agar dilution; read-out: minimum inhibitory concentration (MIC)
[8] = tested on: Staphylococcus epidermidis IFO 12993; conditions: IFO12993, aerobic, read-out: minimum inhibitory concentration (MIC)
[9] = tested on: Bordetella bronchiseptica ATCC 4617; conditions: ATCC4617, aerobic, read-out: minimum inhibitory concentration (MIC)
[10] = tested on: Enterobacter aerogenes NR 2945; conditions: Klebsiella aerogenes, NR2945, aerobic, read-out: minimum inhibitory concentration (MIC)
[11] = tested on: Staphylococcus aureus NR 2855; conditions: NR2855; Staphylococcus aureus NR 2855; aerobic; agar dilution; read-out: minimum inhibitory concentration (MIC)
[12] = tested on: Staphylococcus epidermidis NR 2942; conditions: NR2942, aerobic, read-out: minimum inhibitory concentration (MIC)
[13] = tested on: Alcaligenes faecalis IFO 13111; conditions: IFO13111, aerobic, read-out: minimum inhibitory concentration (MIC)
[14] = tested on: Escherichia coli NIHJ JC-2; conditions: NIHJJC2, aerobic, read-out: minimum inhibitory concentration (MIC)
[15] = tested on: Proteus rettgeri ATCC 14505; conditions: Providencia rettgeri, ATCC14505, aerobic, read-out: minimum inhibitory concentration (MIC)
[16] = tested on: Bacillus subtilis PCI 219; conditions: PCI219, aerobic, read-out: minimum inhibitory concentration (MIC)
[17] = tested on: Pseudomonas aeruginosa A3; conditions: aerobic, read-out: minimum inhibitory concentration (MIC)
[18] = tested on: Pseudomonas aeruginosa NR 2950; conditions: NR2950, aerobic, read-out: minimum inhibitory concentration (MIC)
[19] = tested on: Staphylococcus aureus Smith; conditions: Staphylococcus aureus Smith; aerobic; agar dilution; read-out: minimum inhibitory concentration (MIC)
[20] = tested on: Serratia marcescens IFO 12648; conditions: IFO12648, aerobic, read-out: minimum inhibitory concentration (MIC)
[21] = tested on: Citrobacter freundii IFO 12681; conditions: IFO12681, aerobic, read-out: minimum inhibitory concentration (MIC)

CN1COc2c(N3CCS(=O)(=O)CC3)c(F)cc3c(=O)c(C(=O)O)cn1c23 [Example 39, 10-(1,1-dioxide-4-thiomorpholinyl)-9-fluoro-3-methyl-7-oxo-2,3-dihydro-7H-pyrido[3,2,1-ij]-1,3,4-benzoxadiazine-6-carboxylic acid]
MIC [1]: 12.5 µg/mL (≈ 31.5 µM) | MIC [2]: 0.78 µg/mL (≈ 1.96 µM) | MIC [3]: 0.2 µg/mL (≈ 0.503 µM) | MIC [4]: 1.56 µg/mL (≈ 3.93 µM) | MIC [5]: 0.39 µg/mL (≈ 0.981 µM) | MIC [6]: 0.05 µg/mL (≈ 0.126 µM) | MIC [7]: 0.025 µg/mL (≈ 0.0629 µM) | MIC [8]: 0.39 µg/mL (≈ 0.981 µM) | MIC [9]: 0.78 µg/mL (≈ 1.96 µM) | MIC [10]: 0.05 µg/mL (≈ 0.126 µM) | MIC [11]: 0.78 µg/mL (≈ 1.96 µM) | MIC [12]: 0.39 µg/mL (≈ 0.981 µM) | MIC [13]: 6.25 µg/mL (≈ 15.7 µM) | MIC [14]: 0.78 µg/mL (≈ 1.96 µM) | MIC [15]: 3.13 µg/mL (≈ 7.88 µM) | MIC [16]: 0.025 µg/mL (≈ 0.0629 µM) | MIC [17]: 3.13 µg/mL (≈ 7.88 µM) | MIC [18]: 12.5 µg/mL (≈ 31.5 µM) | MIC [19]: 0.39 µg/mL (≈ 0.981 µM) | MIC [20]: 1.56 µg/mL (≈ 3.93 µM) | MIC [21]: 0.78 µg/mL (≈ 1.96 µM)

CN1COc2c(N3CCN(CC(=O)c4ccccc4)CC3)c(F)cc3c(=O)c(C(=O)O)cn1c23 [Example 41]
MIC [1]: 100 µg/mL (≈ 214 µM) | MIC [2]: 0.78 µg/mL (≈ 1.67 µM) | MIC [3]: 0.78 µg/mL (≈ 1.67 µM) | MIC [4]: 3.13 µg/mL (≈ 6.71 µM) | MIC [5]: 6.25 µg/mL (≈ 13.4 µM) | MIC [6]: 1.56 µg/mL (≈ 3.34 µM) | MIC [7]: 0.39 µg/mL (≈ 0.836 µM) | MIC [8]: 6.25 µg/mL (≈ 13.4 µM) | MIC [9]: 25 µg/mL (≈ 53.6 µM) | MIC [10]: 0.1 µg/mL (≈ 0.214 µM) | MIC [11]: 6.25 µg/mL (≈ 13.4 µM) | MIC [12]: 12.5 µg/mL (≈ 26.8 µM) | MIC [13]: 50 µg/mL (≈ 107 µM) | MIC [14]: 0.78 µg/mL (≈ 1.67 µM) | MIC [15]: 3.13 µg/mL (≈ 6.71 µM) | MIC [16]: 3.13 µg/mL (≈ 6.71 µM) | MIC [17]: 3.13 µg/mL (≈ 6.71 µM) | MIC [18]: 12.5 µg/mL (≈ 26.8 µM) | MIC [19]: 6.25 µg/mL (≈ 13.4 µM) | MIC [20]: 3.13 µg/mL (≈ 6.71 µM) | MIC [21]: 0.39 µg/mL (≈ 0.836 µM)

CNC1CCN(c2c(F)cc3c(=O)c(C(=O)O)cn4c3c2OCN4C)CC1 [Example 34]
MIC [1]: 6.25 µg/mL (≈ 16.6 µM) | MIC [2]: 0.2 µg/mL (≈ 0.531 µM) | MIC [3]: 0.1 µg/mL (≈ 0.266 µM) | MIC [4]: 0.78 µg/mL (≈ 2.07 µM) | MIC [5]: 0.2 µg/mL (≈ 0.531 µM) | MIC [6]: 0.05 µg/mL (≈ 0.133 µM) | MIC [7]: 0.1 µg/mL (≈ 0.266 µM) | MIC [8]: 0.78 µg/mL (≈ 2.07 µM) | MIC [9]: 25 µg/mL (≈ 66.4 µM) | MIC [10]: 0.1 µg/mL (≈ 0.266 µM) | MIC [11]: 1.56 µg/mL (≈ 4.14 µM) | MIC [12]: 0.78 µg/mL (≈ 2.07 µM) | MIC [13]: 50 µg/mL (≈ 133 µM) | MIC [14]: 0.2 µg/mL (≈ 0.531 µM) | MIC [15]: 3.13 µg/mL (≈ 8.32 µM) | MIC [16]: 0.05 µg/mL (≈ 0.133 µM) | MIC [17]: 0.78 µg/mL (≈ 2.07 µM) | MIC [18]: 6.25 µg/mL (≈ 16.6 µM) | MIC [19]: 0.2 µg/mL (≈ 0.531 µM) | MIC [20]: 0.78 µg/mL (≈ 2.07 µM) | MIC [21]: 0.2 µg/mL (≈ 0.531 µM)

C=CCN1CCN(c2c(F)cc3c(=O)c(C(=O)O)cn4c3c2OCN4C)CC1 [Example 46]
MIC [1]: 6.25 µg/mL (≈ 16.1 µM) | MIC [2]: 0.2 µg/mL (≈ 0.515 µM) | MIC [3]: 0.1 µg/mL (≈ 0.257 µM) | MIC [4]: 0.78 µg/mL (≈ 2.01 µM) | MIC [5]: 0.78 µg/mL (≈ 2.01 µM) | MIC [6]: 0.05 µg/mL (≈ 0.129 µM) | MIC [7]: 0.05 µg/mL (≈ 0.129 µM) | MIC [8]: 0.78 µg/mL (≈ 2.01 µM) | MIC [9]: 0.39 µg/mL (≈ 1 µM) | MIC [10]: 0.1 µg/mL (≈ 0.257 µM) | MIC [11]: 0.39 µg/mL (≈ 1 µM) | MIC [12]: 0.39 µg/mL (≈ 1 µM) | MIC [13]: 1.56 µg/mL (≈ 4.02 µM) | MIC [14]: 0.1 µg/mL (≈ 0.257 µM) | MIC [15]: 1.56 µg/mL (≈ 4.02 µM) | MIC [16]: 0.05 µg/mL (≈ 0.129 µM) | MIC [17]: 1.56 µg/mL (≈ 4.02 µM) | MIC [18]: 6.25 µg/mL (≈ 16.1 µM) | MIC [19]: 0.39 µg/mL (≈ 1 µM) | MIC [20]: 0.39 µg/mL (≈ 1 µM) | MIC [21]: 0.1 µg/mL (≈ 0.257 µM)

CN1COc2c(N3CCC(CN)CC3)c(F)cc3c(=O)c(C(=O)O)cn1c23 [Example 12]
MIC [1]: 3.13 µg/mL (≈ 8.32 µM) | MIC [2]: 0.78 µg/mL (≈ 2.07 µM) | MIC [3]: 0.2 µg/mL (≈ 0.531 µM) | MIC [4]: 3.13 µg/mL (≈ 8.32 µM) | MIC [5]: 0.1 µg/mL (≈ 0.266 µM) | MIC [6]: 0.1 µg/mL (≈ 0.266 µM) | MIC [7]: 0.1 µg/mL (≈ 0.266 µM) | MIC [8]: 0.39 µg/mL (≈ 1.04 µM) | MIC [9]: 6.25 µg/mL (≈ 16.6 µM) | MIC [10]: 0.2 µg/mL (≈ 0.531 µM) | MIC [11]: 0.78 µg/mL (≈ 2.07 µM) | MIC [12]: 0.39 µg/mL (≈ 1.04 µM) | MIC [13]: 50 µg/mL (≈ 133 µM) | MIC [14]: 0.2 µg/mL (≈ 0.531 µM) | MIC [15]: 12.5 µg/mL (≈ 33.2 µM) | MIC [16]: 0.1 µg/mL (≈ 0.266 µM) | MIC [17]: 0.78 µg/mL (≈ 2.07 µM) | MIC [18]: 12.5 µg/mL (≈ 33.2 µM) | MIC [19]: 0.1 µg/mL (≈ 0.266 µM) | MIC [20]: 3.13 µg/mL (≈ 8.32 µM) | MIC [21]: 0.78 µg/mL (≈ 2.07 µM)

CN1COc2c(N3CCC(N)CC3)c(F)cc3c(=O)c(C(=O)O)cn1c23 [Example 33]
MIC [1]: 3.13 µg/mL (≈ 8.64 µM) | MIC [2]: 0.2 µg/mL (≈ 0.552 µM) | MIC [3]: 0.1 µg/mL (≈ 0.276 µM) | MIC [4]: 0.78 µg/mL (≈ 2.15 µM) | MIC [5]: 0.2 µg/mL (≈ 0.552 µM) | MIC [6]: 0.05 µg/mL (≈ 0.138 µM) | MIC [7]: 0.1 µg/mL (≈ 0.276 µM) | MIC [8]: 0.78 µg/mL (≈ 2.15 µM) | MIC [9]: 25 µg/mL (≈ 69 µM) | MIC [10]: 0.05 µg/mL (≈ 0.138 µM) | MIC [11]: 1.56 µg/mL (≈ 4.31 µM) | MIC [12]: 0.78 µg/mL (≈ 2.15 µM) | MIC [13]: 50 µg/mL (≈ 138 µM) | MIC [14]: 0.2 µg/mL (≈ 0.552 µM) | MIC [15]: 1.56 µg/mL (≈ 4.31 µM) | MIC [16]: 0.2 µg/mL (≈ 0.552 µM) | MIC [17]: 0.39 µg/mL (≈ 1.08 µM) | MIC [18]: 6.25 µg/mL (≈ 17.2 µM) | MIC [19]: 0.2 µg/mL (≈ 0.552 µM) | MIC [20]: 0.78 µg/mL (≈ 2.15 µM) | MIC [21]: 0.2 µg/mL (≈ 0.552 µM)
